# Data as given in PubChem BioAssay (NCI).
#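 1) Cells in 96-well plates. 2) Compound, 48 h, 5 concentrations. 3) Linear interpolation between surrounding doses. 4) Unreached endpoint = highest concentration. GI50 is the concentration that inhibits growth by half. TGI is the concentration that stops growth completely.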
# How the values were obtained:
# Experiment in all cases: NCI anticancer screen, dose series, 48 h
# [1] = tested on: 786-0 renal
# [2] = tested on: A498 renal
# [3] = tested on: A549 NSCLC
# [4] = tested on: ACHN renal
# [5] = tested on: BT-549 breast
# [6] = tested on: CAKI-1 renal
# [7] = tested on: CCRF-CEM leukemia
# [8] = tested on: COLO 205 colon
# [9] = tested on: DU-145 prostate
# [10] = tested on: EKVX NSCLC
# [11] = tested on: HCC-2998 colon
# [12] = tested on: HCT-15 colon
# [13] = tested on: HL-60(TB) leukemia
# [14] = tested on: HOP-62 NSCLC
# [15] = tested on: HOP-92 NSCLC
# [16] = tested on: HS 578T breast
# [17] = tested on: HT29 colon
# [18] = tested on: IGROV1 ovarian
# [19] = tested on: K-562 leukemia
# [20] = tested on: KM12 colon
# [21] = tested on: LOX IMVI melanoma
# [22] = tested on: M14 melanoma
# [23] = tested on: MALME-3M melanoma
# [24] = tested on: MCF7 breast
# [25] = tested on: MDA-MB-231 breast
# [26] = tested on: MDA-MB-435
# [27] = tested on: MOLT-4 leukemia
# [28] = tested on: NCI-H226 lung
# [29] = tested on: NCI-H23 lung
# [30] = tested on: NCI-H460 lung
# [31] = tested on: NCI-H522 lung
# [32] = tested on: NCI/ADR-RES ovarian
# [33] = tested on: OVCAR-4 ovarian
# [34] = tested on: OVCAR-5 ovarian
# [35] = tested on: OVCAR-8 ovarian
# [36] = tested on: PC-3 prostate
# [37] = tested on: RXF 393 renal
# [38] = tested on: SF-268 CNS
# [39] = tested on: SF-295 CNS
# [40] = tested on: SF-539 CNS
# [41] = tested on: SK-MEL-2 melanoma
# [42] = tested on: SK-MEL-28 melanoma
# [43] = tested on: SK-MEL-5 melanoma
# [44] = tested on: SK-OV-3 ovarian
# [45] = tested on: SN12C renal
# [46] = tested on: SNB-19 CNS
# [47] = tested on: SNB-75 CNS
# [48] = tested on: SR leukemia
# [49] = tested on: SW-620 colon
# [50] = tested on: TK-10 renal
# [51] = tested on: U251 CNS
# [52] = tested on: UACC-257 melanoma
# [53] = tested on: UACC-62 melanoma
# [54] = tested on: UO-31 renal
# [55] = tested on: HCT-116 colon
# [56] = tested on: RPMI-8226 leukemia
smiles,measurement,setting,value
CCCCCc1ccc(S(=O)(=O)Nc2cccc(-c3csc(NCCN4CCN(C)CC4)n3)c2)cc1,GI50,[1],1670 nM
same,TGI,[1],3080 nM
same,GI50,[2],1530 nM
same,TGI,[2],3120 nM
same,GI50,[3],1720 nM
same,TGI,[3],3300 nM
same,GI50,[4],1750 nM
same,TGI,[4],3240 nM
same,GI50,[5],1560 nM
same,TGI,[5],2970 nM
same,GI50,[6],1520 nM
same,TGI,[6],3190 nM
same,GI50,[7],2590 nM
same,TGI,[7],9630 nM
same,GI50,[8],1640 nM
same,TGI,[8],3160 nM
same,GI50,[9],1960 nM
same,TGI,[9],3920 nM
same,GI50,[10],1670 nM
same,TGI,[10],3610 nM
same,GI50,[11],1750 nM
same,TGI,[11],3240 nM
same,GI50,[12],1680 nM
same,TGI,[12],3310 nM
same,GI50,[13],2310 nM
same,TGI,[13],5340 nM
same,GI50,[14],1730 nM
same,TGI,[14],3320 nM
same,GI50,[15],1280 nM
same,TGI,[15],2730 nM
same,GI50,[16],1830 nM
same,TGI,[16],4220 nM
same,GI50,[17],1900 nM
same,TGI,[17],3710 nM
same,GI50,[18],1630 nM
same,TGI,[18],3180 nM
same,GI50,[19],3020 nM
same,TGI,[19],> 100000 nM
same,GI50,[20],1720 nM
same,TGI,[20],3220 nM
same,GI50,[21],1690 nM
same,TGI,[21],3130 nM
same,GI50,[22],1770 nM
same,TGI,[22],3420 nM
same,GI50,[23],1540 nM
same,TGI,[23],2990 nM
same,GI50,[24],1690 nM
same,TGI,[24],3330 nM
same,GI50,[25],1630 nM
same,TGI,[25],3300 nM
same,GI50,[26],1700 nM
same,TGI,[26],3300 nM
same,GI50,[27],3360 nM
same,TGI,[27],14600 nM
same,GI50,[28],1850 nM
same,TGI,[28],3930 nM
same,GI50,[29],1810 nM
same,TGI,[29],3620 nM
same,GI50,[30],1780 nM
same,TGI,[30],3290 nM
same,GI50,[31],1800 nM
same,TGI,[31],3430 nM
same,GI50,[32],1840 nM
same,TGI,[32],4250 nM
same,GI50,[33],2020 nM
same,TGI,[33],5180 nM
same,GI50,[34],1890 nM
same,TGI,[34],4010 nM
same,GI50,[35],1840 nM
same,TGI,[35],3500 nM
same,GI50,[36],1860 nM
same,TGI,[36],4420 nM
same,GI50,[37],1410 nM
same,TGI,[37],2900 nM
same,GI50,[38],1760 nM
same,TGI,[38],3630 nM
same,GI50,[39],1860 nM
same,TGI,[39],3540 nM
same,GI50,[40],1700 nM
same,TGI,[40],3110 nM
same,GI50,[41],1760 nM
same,TGI,[41],3330 nM
same,GI50,[42],1870 nM
same,TGI,[42],3360 nM
same,GI50,[43],1780 nM
same,TGI,[43],3190 nM
same,GI50,[44],1750 nM
same,TGI,[44],3350 nM
same,GI50,[45],2010 nM
same,TGI,[45],4480 nM
same,GI50,[46],1960 nM
same,TGI,[46],4050 nM
same,GI50,[47],1390 nM
same,TGI,[47],2890 nM
same,GI50,[48],2470 nM
same,TGI,[48],> 100000 nM
same,GI50,[49],1660 nM
same,TGI,[49],3120 nM
same,GI50,[50],1800 nM
same,TGI,[50],3610 nM
same,GI50,[51],1700 nM
same,TGI,[51],3230 nM
same,GI50,[52],1730 nM
same,TGI,[52],3270 nM
same,GI50,[53],1820 nM
same,TGI,[53],3470 nM
same,GI50,[54],1420 nM
same,TGI,[54],2940 nM
NC(=O)c1c(NC(=O)c2cccc(C(F)(F)F)c2F)sc2c1CCC(=O)C2,GI50,[1],2200 nM
same,TGI,[1],> 100000 nM
same,GI50,[2],> 100000 nM
same,TGI,[2],> 100000 nM
same,GI50,[4],337 nM
same,TGI,[4],> 100000 nM
same,GI50,[5],327 nM
same,TGI,[5],> 100000 nM
same,GI50,[7],212 nM
same,TGI,[7],> 100000 nM
same,GI50,[9],> 100000 nM
same,TGI,[9],> 100000 nM
same,GI50,[55],306 nM
same,TGI,[55],> 100000 nM
same,GI50,[14],6690 nM
same,TGI,[14],> 100000 nM
same,GI50,[16],831 nM
same,TGI,[16],> 100000 nM
same,GI50,[19],231 nM
same,TGI,[19],> 100000 nM
same,GI50,[36],270 nM
same,TGI,[36],> 100000 nM
same,GI50,[56],231 nM
same,GI50,[39],3090 nM
same,TGI,[39],> 100000 nM
same,GI50,[41],> 100000 nM
same,TGI,[41],> 100000 nM
same,GI50,[44],> 100000 nM
same,TGI,[44],> 100000 nM
same,GI50,[46],577 nM
same,TGI,[46],> 100000 nM
same,GI50,[47],2160 nM
same,TGI,[47],39100 nM
same,GI50,[48],326 nM
same,TGI,[48],> 100000 nM
same,GI50,[51],315 nM
same,TGI,[51],> 100000 nM
